Reference: US20030148529A1 (priority 2000, published 2003)

Columns and labels:
[1] = tested on: Male and female M. croceipes; parameters: species or system Microplitis croceipes; conditions: in vivo
M. croceipes = tested on: M. croceipes; parameters: species or system Microplitis croceipes; conditions: in vivo

CCCCCC(=O)CC [3-Octanone]
Head-sticking behavior [1]: no head-sticking behavior | Average number of times a trained wasp entered the opening (M. croceipes): approximately 1.5 | Average time spent in the opening (M. croceipes): 15 s | Trained wasps displaying head-sticking behavior (M. croceipes): about 18 out of 20
